This passage reports MIC and MBC results from ChEMBL document CHEMBL3813649, “The influence of halogen substituents on the biological properties of sulfur-containing flavonoids” (2016).

Format in all cases: functional
For assay [1], the system named is Staphylococcus aureus. The assay is described as follows: Antibacterial activity against Staphylococcus aureus ATCC 25923 after 18 hrs by microbroth dilution assay. (In general: In broth dilution the organism is exposed to a series of concentrations in liquid medium.)
The test system of assay [2] is Escherichia coli. The assay is described as follows: Antibacterial activity against Escherichia coli ATCC 25922 after 18 hrs by microbroth dilution assay.
Assay [3] relates to Staphylococcus aureus. The assay is described as follows: Bactericidal activity against Staphylococcus aureus ATCC 25923 after 18 hrs by microbroth dilution assay. As to conditions: ATCC 25923, 18 h.
The test system of assay [4] is Escherichia coli. Put plainly: Bactericidal activity against Escherichia coli ATCC 25922 after 18 hrs by microbroth dilution assay. As to conditions: ATCC 25922, 18 h.
Setting [5] is: Staphylococcus aureus, ATCC 25923, 18 h, read-out: MIC.
Where [6] appears, read: Escherichia coli, ATCC 25922, 18 h, read-out: MIC.

Converted amounts (≈) assume the structure as drawn.

As a reminder, the MBC is the lowest tested concentration that kills the bacteria rather than only halting them. Low values mean more potent killing, high ones less potent killing. Take `CCN(CC)[c+]1sc2c(s1)C(c1ccc(F)cc1)Oc1ccccc1-2.F[B-](F)(F)F` (stereo not drawn): the MIC turned out to be 7.81 µg/mL in the assay on Staphylococcus aureus [1] (setting [5]) and 125 µg/mL with Escherichia coli [2] (setting [6]). Moreover, the minimal bactericidal concentration (MBC) against Staphylococcus aureus [3] is 7.81 µg/mL; against Escherichia coli [4], 125 µg/mL.
As to `CCN(CC)[c+]1sc2c(s1)C(c1ccc(Br)cc1)Oc1ccc(Cl)cc1-2.F[B-](F)(F)F` (stereo not drawn), the figures for the MIC with Staphylococcus aureus [1] (setting [5]) and with Escherichia coli [2] (setting [6]) were 0.24 µg/mL and 3.9 µg/mL, respectively. Besides, the figures for the minimal bactericidal concentration (MBC) in the assay with Staphylococcus aureus [3] and against Escherichia coli [4] were 3.9 µg/mL and 1.95 µg/mL, respectively.
For `CCN(CC)[c+]1sc2c(s1)C(c1ccccc1)Oc1ccccc1-2.F[B-](F)(F)F` (stereo not drawn), the MIC in the assay with Staphylococcus aureus [1] (setting [5]) and in the assay with Escherichia coli [2] (setting [6]) was 62.5 µg/mL each time. Moreover, the minimal bactericidal concentration (MBC) in the assay on Staphylococcus aureus [3] and in the assay on Escherichia coli [4] was 250 µg/mL throughout.
For the molecule `CCN(CC)[c+]1sc2c(s1)C(c1ccc(Br)cc1)Oc1ccccc1-2.F[B-](F)(F)F` (stereo not drawn), the MIC in the assay on Staphylococcus aureus [1] (setting [5]) worked out at 1.95 µg/mL; with Escherichia coli [2] (setting [6]), 62.5 µg/mL. For the same molecule, the minimum bactericidal concentration (MBC) was 1.95 µg/mL against Staphylococcus aureus [3] and 125 µg/mL in the assay with Escherichia coli [4].
`CCN(CC)[c+]1sc2c(s1)C(c1ccc(I)cc1)Oc1ccc(Cl)cc1-2.F[B-](F)(F)F` (stereo not drawn): the MIC in the assay with Staphylococcus aureus [1] (setting [5]) was 0.24 µg/mL; with Escherichia coli [2] (setting [6]), 1.95 µg/mL. The minimum bactericidal concentration (MBC) against Staphylococcus aureus [3] was 0.48 µg/mL; in the assay on Escherichia coli [4], 0.97 µg/mL.
As for `CCN(CC)[c+]1sc2c(s1)C(c1ccc(Cl)cc1)Oc1ccccc1-2.F[B-](F)(F)F` (stereo not drawn), the figures for the MIC in the assay on Staphylococcus aureus [1] (setting [5]) and in the assay on Escherichia coli [2] (setting [6]) were 3.9 µg/mL and 125 µg/mL, respectively. Also, the minimum bactericidal concentration (MBC) against Staphylococcus aureus [3] was 7.81 µg/mL; in the assay with Escherichia coli [4], 125 µg/mL.
As to `NC[C@H]1O[C@H](O[C@H]2[C@H](O)[C@@H](O[C@H]3O[C@H](CO)[C@@H](O)[C@H](N)[C@H]3O)[C@H](N)C[C@@H]2N)[C@H](O)[C@@H](O)[C@@H]1O` [KANAMYCIN], the MIC came to 1.95 µg/mL (≈ 4.02 µM) in the assay on Staphylococcus aureus [1] (setting [5]) and 7.81 µg/mL (≈ 16.1 µM) in the assay with Escherichia coli [2] (setting [6]). Moreover, the MBC in the assay with Staphylococcus aureus [3] was 1.95 µg/mL (≈ 4.02 µM); with Escherichia coli [4], 7.81 µg/mL (≈ 16.1 µM).
As for `CCN(CC)[c+]1sc2c(s1)C(c1ccc(Br)cc1)Oc1ccc(F)cc1-2.F[B-](F)(F)F` (stereo not drawn), the MIC in the assay with Staphylococcus aureus [1] (setting [5]) was determined as 1.95 µg/mL; in the assay on Escherichia coli [2] (setting [6]), 7.81 µg/mL. In addition, the MBC against Staphylococcus aureus [3] is 7.81 µg/mL; against Escherichia coli [4] it was 15.6 µg/mL.
Consider `CCN(CC)[c+]1sc2c(s1)C(c1ccccc1)Oc1ccc(F)cc1-2.F[B-](F)(F)F` (stereo not drawn), for which the MIC in the assay with Staphylococcus aureus [1] (setting [5]) was found to be 7.81 µg/mL; in the assay with Escherichia coli [2] (setting [6]), 62.5 µg/mL. Besides, the MBC in the assay with Staphylococcus aureus [3] was determined as 15.6 µg/mL; against Escherichia coli [4], 125 µg/mL.
With `CCN(CC)[c+]1sc2c(s1)C(c1ccc(Cl)cc1)Oc1ccc(Cl)cc1-2.F[B-](F)(F)F` (stereo not drawn), the MIC in the assay on Staphylococcus aureus [1] (setting [5]) is 0.24 µg/mL; with Escherichia coli [2] (setting [6]), 3.9 µg/mL. The minimum bactericidal concentration (MBC) with Staphylococcus aureus [3] amounted to 0.48 µg/mL; in the assay with Escherichia coli [4], 3.9 µg/mL.
As for `CCN(CC)[c+]1sc2c(s1)C(c1ccc(Cl)cc1)Oc1ccc(F)cc1-2.F[B-](F)(F)F` (stereo not drawn), the MIC was found to be 3.9 µg/mL in the assay on Staphylococcus aureus [1] (setting [5]) and 15.6 µg/mL with Escherichia coli [2] (setting [6]). Besides, the results for the MBC in the assay on Staphylococcus aureus [3] and in the assay on Escherichia coli [4] were 7.81 µg/mL and 15.6 µg/mL, respectively.
On to `CCN(CC)[c+]1sc2c(s1)C(c1ccc(I)cc1)Oc1ccc(F)cc1-2.F[B-](F)(F)F` (stereo not drawn), for which the MIC was determined as 1.95 µg/mL in the assay on Staphylococcus aureus [1] (setting [5]) and 3.9 µg/mL with Escherichia coli [2] (setting [6]). Besides, the minimum bactericidal concentration (MBC) was found to be 0.97 µg/mL against Staphylococcus aureus [3] and 7.81 µg/mL in the assay on Escherichia coli [4].
As for `CCN(CC)[c+]1sc2c(s1)C(c1ccc(I)cc1)Oc1ccccc1-2.F[B-](F)(F)F` (stereo not drawn), the MIC was found to be 0.97 µg/mL in the assay with Staphylococcus aureus [1] (setting [5]) and 31.2 µg/mL in the assay with Escherichia coli [2] (setting [6]). For the same molecule, the MBC came out at 1.95 µg/mL in the assay with Staphylococcus aureus [3] and 62.5 µg/mL with Escherichia coli [4].
`CC1(C)S[C@@H]2[C@H](NC(=O)[C@H](N)c3ccccc3)C(=O)N2[C@H]1C(=O)O` [AMPICILLIN]: the MIC in the assay with Staphylococcus aureus [1] (setting [5]) and in the assay on Escherichia coli [2] (setting [6]) was 7.81 µg/mL (≈ 22.4 µM) each time.
`C[S+](C)[O-]` [DIMETHYL SULFOXIDE]: the MIC against Staphylococcus aureus [1] was found to be 250 uL/ml; against Escherichia coli [2] it was 125 uL/ml.
For `CCN(CC)[c+]1sc2c(s1)C(c1ccc(F)cc1)Oc1ccc(F)cc1-2.F[B-](F)(F)F` (stereo not drawn), the results for the MIC with Staphylococcus aureus [1] (setting [5]) and with Escherichia coli [2] (setting [6]) were 7.81 µg/mL and 15.6 µg/mL, respectively. Moreover, the minimum bactericidal concentration (MBC) against Staphylococcus aureus [3] came to 3.9 µg/mL; in the assay on Escherichia coli [4], 125 µg/mL.
For `CCN(CC)[c+]1sc2c(s1)C(c1ccc(F)cc1)Oc1ccc(Cl)cc1-2.F[B-](F)(F)F` (stereo not drawn), the MIC was found to be 1.95 µg/mL in the assay on Staphylococcus aureus [1] (setting [5]) and 15.6 µg/mL in the assay on Escherichia coli [2] (setting [6]). For the same molecule, the minimum bactericidal concentration (MBC) in the assay on Staphylococcus aureus [3] was determined as 3.9 µg/mL; with Escherichia coli [4] it was 15.6 µg/mL.
In the case of `CCN(CC)[c+]1sc2c(s1)C(c1ccccc1)Oc1ccc(Cl)cc1-2.F[B-](F)(F)F` (stereo not drawn), the MIC with Staphylococcus aureus [1] (setting [5]) is 3.9 µg/mL; with Escherichia coli [2] (setting [6]) it was 62.5 µg/mL. For the same molecule, the MBC against Staphylococcus aureus [3] is 3.9 µg/mL; in the assay on Escherichia coli [4] it was 125 µg/mL.
